Assays:
[1] = biological target: T1, N-type calcium channel (NTCC) (Homo sapiens, UniProt Q00975); assay: FLIPR calcium mobilization assay for N-type calcium channel; type: cell-based; conditions: calcium mobilization in vitro assay; differentiated IMR32 cells, 90 mM KCl, 5 μM nitrendipine
T1 construct: endogenous in cells; host or cells: IMR32 cells (ATCC), differentiated with dibutyryl cAMP and bromodeoxyuridine
Description: Cell maintenance and differentiation. Unless noted otherwise, cell culture reagents were purchased from Mediatech of Hemdon, Md. IMR32 cells (American Type Culture Collection, ATCC, Manassas, Va.) were routinely cultured in growth medium consisting of minimum essential medium containing 10% fetal bovine serum (FBS, Hyclone, Logan, Utah), 100 U/mL penicillin, 100 μg/mL streptomycin, 2 mM L-glutamine, 1 mM sodium pyruvate, and 1×MEM non-essential amino acids. 80-90% confluent flasks of cells were differentiated using the following differentiation medium: Growth medium plus 1 mM dibutyryl cyclic AMP (Sigma, St. Louis, Mo.), and 2.5 μM bromodeoxyuridine (Sigma). Cells were differentiated for 8 days by replacing differentiation medium every 2-3 days.
FLIPR Calcium Mobilization Assay for N-type Calcium Channel. One day prior to performing this assay, differentiated IMR32 cells were treated with 1× CellStripper, and seeded on poly-D-lysine-coated 96-well clear-bottom black plates (Becton Dickinson, Franklin Lakes, N.J.) at 200,000 cells/well. On the day of the assay, the cell plates were washed with IMR32 buffer (127 mM NaCl, 1 mM KCl, 2 mM MgCl2, 700 μM NaH2PO4, 5 mM CaCl2, 5 mM NaHCO3, 8 mM HEPES, 10 mM glucose, pH 7.4), then pre-stimulated with KCl and loaded as follows: 0.05 mL of IMR32 buffer, 0.05 mL of each compound tested diluted in IMR32 buffer containing 20 μM nitrendipine (Sigma), and 0.1 mL KCl dissolved in IMR32 buffer, plus Fluo-4 were added (3 μM final concentration, Molecular Probes, Eugene, Oreg.). Final test compound concentrations ranged from about 846 μM to about 17 μM, final nitrendipine concentration was 5 μM, and final KCl concentration was 90 mM. After 1 hour, the cells were washed twice with 0.05 mL of each compound tested in nitrendipine-containing IMR32 buffer (no KCl or Fluo-4), and then replaced with 0.1 mL of each compound tested in nitrendipine-containing IMR32 buffer. Plates were then transferred to a Fluorimetric Imaging Plate Reader (FLIPR^96, Molecular Devices, Inc., Sunnyvale, Calif.) for assay. The FLIPR measured basal Fluo-4 fluorescence for 315 seconds (i.e., 5 minutes and 15 seconds), then added 0.1 mL KCl agonist dissolved in IMR32 buffer and measured fluorescence for another 45 seconds. Final test compound concentrations on the cells after FLIPR read ranged from about 846 μM to about 17 μM, final nitrendipine concentration was 5 μM, and final KCl concentration was 90 mM. Data were collected over the entire time course and analyzed using Excel, Graph Pad Prism (version 3.02, Graph Pad, San Diego, Calif.), or an in-house non-linear regression analysis software.

[2] = biological target: T2, recombinant rat L-type calcium channel (LTCC) subunits (α1c, α2δ, and β1) (Rattus norvegicus, UniProt P22002); assay: FLIPR calcium mobilization assay for L-type calcium channel; type: cell-based; conditions: calcium mobilization in vitro assay; HEK293 cells stably expressing LTCC, 90 mM KCl
T2 construct: expressed in transfected cells; pcDNA6.2DEST α1c, pcDNA3.2DEST β1, pcDNA3.1-Zeo α2δ)
T2 sequence (P22002 whole entry): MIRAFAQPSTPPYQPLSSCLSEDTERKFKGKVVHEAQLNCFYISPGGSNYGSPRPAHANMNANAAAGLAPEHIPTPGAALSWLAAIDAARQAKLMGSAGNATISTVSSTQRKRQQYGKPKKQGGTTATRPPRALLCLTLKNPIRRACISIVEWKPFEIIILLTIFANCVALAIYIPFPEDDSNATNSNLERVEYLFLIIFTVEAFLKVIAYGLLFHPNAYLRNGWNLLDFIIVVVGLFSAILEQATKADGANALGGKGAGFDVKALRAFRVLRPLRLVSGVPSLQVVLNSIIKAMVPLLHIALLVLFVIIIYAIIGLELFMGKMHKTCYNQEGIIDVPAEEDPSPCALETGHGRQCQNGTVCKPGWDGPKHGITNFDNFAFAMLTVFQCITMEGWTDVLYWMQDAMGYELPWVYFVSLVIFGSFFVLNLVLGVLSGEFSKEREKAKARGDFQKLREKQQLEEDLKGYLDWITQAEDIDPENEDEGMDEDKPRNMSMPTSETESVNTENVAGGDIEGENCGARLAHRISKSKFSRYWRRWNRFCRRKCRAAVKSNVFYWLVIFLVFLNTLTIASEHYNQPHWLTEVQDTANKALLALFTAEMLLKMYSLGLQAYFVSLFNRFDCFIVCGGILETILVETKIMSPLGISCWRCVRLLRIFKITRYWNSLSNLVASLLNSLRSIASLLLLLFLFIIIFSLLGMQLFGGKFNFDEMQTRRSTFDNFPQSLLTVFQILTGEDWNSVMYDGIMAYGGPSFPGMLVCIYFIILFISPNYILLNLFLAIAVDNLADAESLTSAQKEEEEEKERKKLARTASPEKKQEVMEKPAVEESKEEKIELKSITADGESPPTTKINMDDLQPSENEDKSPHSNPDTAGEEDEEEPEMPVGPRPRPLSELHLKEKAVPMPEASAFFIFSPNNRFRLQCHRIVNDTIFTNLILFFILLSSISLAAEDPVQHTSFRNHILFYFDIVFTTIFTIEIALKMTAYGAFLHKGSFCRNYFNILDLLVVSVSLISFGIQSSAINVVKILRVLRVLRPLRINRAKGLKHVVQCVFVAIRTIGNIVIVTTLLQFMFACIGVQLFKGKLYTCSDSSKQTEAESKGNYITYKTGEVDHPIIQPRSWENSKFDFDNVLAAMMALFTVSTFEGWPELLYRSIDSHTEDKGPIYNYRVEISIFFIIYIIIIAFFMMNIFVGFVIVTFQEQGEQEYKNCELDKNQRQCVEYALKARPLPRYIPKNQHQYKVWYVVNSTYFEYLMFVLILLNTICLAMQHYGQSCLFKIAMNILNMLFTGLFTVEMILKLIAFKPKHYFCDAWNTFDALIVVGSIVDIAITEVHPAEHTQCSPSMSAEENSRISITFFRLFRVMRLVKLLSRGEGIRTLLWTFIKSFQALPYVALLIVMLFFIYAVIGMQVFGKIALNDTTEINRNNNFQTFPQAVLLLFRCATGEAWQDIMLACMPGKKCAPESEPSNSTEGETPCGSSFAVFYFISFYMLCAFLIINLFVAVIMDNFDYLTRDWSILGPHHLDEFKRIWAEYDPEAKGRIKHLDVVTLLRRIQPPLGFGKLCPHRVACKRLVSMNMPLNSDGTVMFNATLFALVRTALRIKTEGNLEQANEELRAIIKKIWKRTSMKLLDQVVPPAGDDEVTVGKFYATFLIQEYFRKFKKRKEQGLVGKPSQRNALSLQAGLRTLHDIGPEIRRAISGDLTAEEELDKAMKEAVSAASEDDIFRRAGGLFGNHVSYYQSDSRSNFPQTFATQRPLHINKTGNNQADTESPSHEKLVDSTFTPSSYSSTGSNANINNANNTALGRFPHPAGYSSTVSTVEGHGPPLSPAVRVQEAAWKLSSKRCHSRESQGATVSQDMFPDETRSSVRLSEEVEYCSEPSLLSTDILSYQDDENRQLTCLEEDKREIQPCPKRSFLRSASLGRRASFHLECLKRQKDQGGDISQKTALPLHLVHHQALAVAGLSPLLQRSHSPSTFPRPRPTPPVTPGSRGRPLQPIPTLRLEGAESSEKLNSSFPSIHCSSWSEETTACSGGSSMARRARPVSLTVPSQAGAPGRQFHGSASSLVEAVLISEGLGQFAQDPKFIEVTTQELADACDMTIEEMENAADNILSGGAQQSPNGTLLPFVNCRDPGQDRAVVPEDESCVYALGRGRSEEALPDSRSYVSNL
T2 sequence (P54290 25-944 partner): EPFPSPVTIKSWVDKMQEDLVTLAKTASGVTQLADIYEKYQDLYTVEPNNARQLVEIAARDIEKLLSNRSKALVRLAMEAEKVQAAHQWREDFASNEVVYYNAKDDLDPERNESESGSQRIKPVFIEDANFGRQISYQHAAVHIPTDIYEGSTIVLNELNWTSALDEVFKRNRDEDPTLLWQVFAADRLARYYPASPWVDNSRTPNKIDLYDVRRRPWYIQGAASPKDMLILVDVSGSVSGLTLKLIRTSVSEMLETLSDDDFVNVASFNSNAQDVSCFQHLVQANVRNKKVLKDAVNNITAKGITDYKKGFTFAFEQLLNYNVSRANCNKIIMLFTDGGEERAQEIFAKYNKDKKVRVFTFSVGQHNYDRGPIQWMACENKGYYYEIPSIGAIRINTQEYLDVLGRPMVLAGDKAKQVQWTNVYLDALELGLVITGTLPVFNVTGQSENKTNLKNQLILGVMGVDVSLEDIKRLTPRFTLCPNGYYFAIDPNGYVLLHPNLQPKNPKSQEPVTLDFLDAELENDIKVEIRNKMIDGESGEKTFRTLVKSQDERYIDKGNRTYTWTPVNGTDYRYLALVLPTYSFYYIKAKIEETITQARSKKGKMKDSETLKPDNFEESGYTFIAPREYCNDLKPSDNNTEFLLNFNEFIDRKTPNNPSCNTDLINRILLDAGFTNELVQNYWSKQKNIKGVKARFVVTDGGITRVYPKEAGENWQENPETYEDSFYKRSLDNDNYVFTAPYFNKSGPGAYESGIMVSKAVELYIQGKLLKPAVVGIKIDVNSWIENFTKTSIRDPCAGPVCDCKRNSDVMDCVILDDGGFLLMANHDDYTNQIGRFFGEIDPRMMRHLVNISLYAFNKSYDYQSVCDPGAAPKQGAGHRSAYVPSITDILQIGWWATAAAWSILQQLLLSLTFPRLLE
T2 sequence (P54290 945-1091 partner): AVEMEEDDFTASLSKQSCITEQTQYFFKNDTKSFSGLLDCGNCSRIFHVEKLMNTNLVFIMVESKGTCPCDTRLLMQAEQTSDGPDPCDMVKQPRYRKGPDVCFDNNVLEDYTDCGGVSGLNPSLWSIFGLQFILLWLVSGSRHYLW
T2 sequence (P54283 whole entry partner): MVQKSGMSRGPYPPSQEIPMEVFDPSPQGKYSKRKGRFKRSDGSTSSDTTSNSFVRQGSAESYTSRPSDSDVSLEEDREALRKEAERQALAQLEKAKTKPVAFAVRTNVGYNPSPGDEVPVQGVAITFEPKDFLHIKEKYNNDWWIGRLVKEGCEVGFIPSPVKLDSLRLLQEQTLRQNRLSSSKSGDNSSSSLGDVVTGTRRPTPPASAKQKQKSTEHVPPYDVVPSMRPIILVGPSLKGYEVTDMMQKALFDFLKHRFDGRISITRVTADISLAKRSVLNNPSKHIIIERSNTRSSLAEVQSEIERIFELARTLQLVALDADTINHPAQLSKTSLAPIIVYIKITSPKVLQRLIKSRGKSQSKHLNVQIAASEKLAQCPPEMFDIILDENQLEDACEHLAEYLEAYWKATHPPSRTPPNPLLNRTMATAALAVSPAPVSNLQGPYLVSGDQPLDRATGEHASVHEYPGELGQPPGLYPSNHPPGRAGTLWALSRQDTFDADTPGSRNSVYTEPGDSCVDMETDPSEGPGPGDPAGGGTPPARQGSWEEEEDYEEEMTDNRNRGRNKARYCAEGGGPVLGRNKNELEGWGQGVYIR
Description: Recombinant human embryonal kidney cells (HEK293, ATCC) stably transfected with either N-type calcium channel (NTCC) subunits (α1b, α2δ, and β3) or L-type calcium channel (LTCC) subunits (α1c, α2δ, and β1) were routinely cultured in growth medium consisting of Dulbecco's Modified Eagles Medium containing 10% FBS, 100 U/mL penicillin, 100 μg/mL streptomycin, 4 mM L-glutamine, 500 μg/mL geneticin (G418), 20 μg/mL Blasticidin S (InVivogen, San Diego, Calif.) and 500 μg/mL zeocin (InVivogen).
FLIPR Calcium Mobilization Assay for L-type Calcium Channel. One day prior to performing this assay, HEK293 cells stably expressing recombinant rat L-type calcium channel (LTCC) subunits (α1c, α2δ, and β1) were trypsinized, then seeded on poly-D-lysine-coated 96-well clear-bottom black plates (Becton Dickinson, Franklin Lakes, N.J.) at 75,000 cells/well. On the day of the assay, the plates were washed with LTCC wash buffer (127 mM NaCl, 2 mM MgCl2, 700 μM NaH2PO4, 5 mM CaCl2, 5 mM NaHCO3, 8 mM HEPES, 10 mM glucose, pH 7.4), then loaded with 0.1 mL of LTCC wash buffer containing Fluo-4 (3 μM final concentration, Molecular Probes, Eugene, Oreg.). After 1 hour, the cells were washed with 0.1 mL LTCC wash buffer and resuspended in 0.05 mL LTCC assay buffer (same composition as LTCC wash buffer). Plates were then transferred to a FLIPR^96 for assay. The FLIPR measured basal Fluo-4 fluorescence for 15 seconds, then added 0.05 mL of each compound tested diluted in LTCC assay buffer at final concentrations ranging from about 846 pM to about 17 μM. Fluo-4 fluorescence was then measured for 5 minutes. 0.1 mL KCl agonist dissolved in LTCC assay buffer was then added to the cells to produce a final concentration of 90 mM KCl, and fluorescence was measured for another 45 seconds. Data were collected over the entire time course and analyzed using Excel, Graph Pad Prism, or an in-house regression analysis software.
L-type Recombinant Cell Line Development. L-type calcium channel expressing HEK-293 cells were created in two stages. Stage 1 was created as follows. The rat α1c, and β1 cDNA expression constructs (2.5 μg each) were co-transfected into human embryonic kidney (HEK-293) cells by Lipofectamine Plus reagent (Invitrogen), as per manufacturer's instructions. 24 hours later, cells were split in limiting dilution into multiple 96-well plates in selection media containing 20 μg/mL blasticidin and 500 μg/mL geneticin, and incubated for 3 weeks at 37° C., 5% CO2, 95% humidity. Plates containing ≦1 clone per well were cultured until wells positive for single clones were confluent. Individual clones were then arrayed into columns of a destination 96-well plate, and partly split into 6-well plates for culture maintenance. Array plates were washed once with LTCC wash (or assay) buffer and cells loaded for 1 hour with 0.1 mL of LTCC buffer containing Fluo-4 (3 μM final concentration, Molecular Probes). Then they were washed twice with 0.1 mL of LTCC buffer, and replaced with 0.1 mL LTCC buffer. Plates were then transferred to a FLIPR^96 for assay. The FLIPR measured basal Fluo-4 fluorescence for 315 seconds, then added 0.1 mL KCl agonist dissolved in LTCC buffer and measured fluorescence for another 45 seconds. Final KCl concentration was 90 mM. Data were collected over the entire time course and analyzed using Excel, Graph Pad Prism, or Activity Base software. The clone with the greatest signal-to-noise ratio, best stability of response with passage number, and best adhesion to PDL precoated plates (Becton Dickinson) was expanded, characterized and used for stage 2 cell line development.
Stage 2 of L-type cell line development was carried out as follows. The rat α2δ cDNA expression construct (5 μg each) was transfected into the stage 1 L-type clonal cell line by Lipofectamine Plus reagent (Invitrogen), as per manufacturer's instructions. […]

Molecule | IC50 [1] [nM] | IC50 [2] [nM]
O=C(CCNCCO)N1CCCC(N(C2CC2)S(=O)(=O)c2cccc(C(F)(F)F)c2)C1 (stereo not drawn) [N-Cyclopropyl-N-{1-[3-(2-hydroxyethylamino)propionyl]piperidin-3-yl}-3-trifluoromethylbenzenesulfonamide] | 2830 | –
O=C(CNCc1cccnc1)N1CCCC(N(C2CC2)S(=O)(=O)c2cccc(C(F)(F)F)c2)C1 (stereo not drawn) [N-Cyclopropyl-N-(1-{2-[(pyridin-3-ylmethyl)amino]acetyl}-piperidin-3-yl)-3-trifluoromethylbenzenesulfonamide] | 1200 | > 20000
COc1ccc(CNCC(=O)N2CCCC(N(C3CC3)S(=O)(=O)c3cccc(C(F)(F)F)c3)C2)cc1 (stereo not drawn) [N-Cyclopropyl-N-{1-[2-(4-methoxybenzylamino)acetyl]-piperidin-3-yl}-3-trifluoromethylbenzenesulfonamide] | 420 | 4650
(2S)N-Cyclopropyl-N-[1-(2-methylcarbonylpropylamino-4-methylpentanoyl)piperidin-3-yl]-3-trifluoromethylbenzenesulfonamide | 510 | –
O=C(CN1CCC(NS(=O)(=O)c2cccc(C(F)(F)F)c2)C1)Nc1ccc(F)cc1 (stereo not drawn) [N-(4-Fluorophenyl)-2-[3-(3-trifluoromethylbenzenesulfonylamino)-pyrrolidin-1-yl]acetamide] | 1680 | –
CC(C)CNC(=O)CN1CCCC(N(C2CC2)S(=O)(=O)c2cccc(C(F)(F)F)c2)C1 (stereo not drawn) [2-{3-[Cyclopropyl-(3-trifluoromethylbenzenesulfonyl)-amino]-piperidin-1-yl}-N-isobutyl-acetamide] | 430 | 9820
CC(C)CNCCC(=O)N1CCCC(N(C2CC2)S(=O)(=O)c2cccc(C(F)(F)F)c2)C1 (stereo not drawn) [N-Cyclopropyl-N-[1-(3-isobutylaminopropionyl)piperidin-3-yl]-3-trifluoromethylbenzenesulfonamide] | 820 | 5630
COCCNCCC(=O)N1CCCC(N(C2CC2)S(=O)(=O)c2cccc(C(F)(F)F)c2)C1 (stereo not drawn) [N-Cyclopropyl-N-{1-[3-(2-methoxyethylamino)propionyl]piperidin-3-yl}-3-trifluoromethylbenzenesulfonamide] | 810 | 10000 to 20000
O=C(CN1CCCC(N(C2CC2)S(=O)(=O)c2cccc(C(F)(F)F)c2)C1)Nc1ccc(F)cc1 (stereo not drawn) [2-{3-[Cyclopropyl-(3-trifluoromethylbenzenesulfonyl)amino]-piperidin-1-yl}-N-(4-fluorophenyl)-acetamide] | 360 | 6180
O=S(=O)(c1cccc(C(F)(F)F)c1)N(C1CC1)C1CCCN(CCCN(c2ccc(F)cc2)c2ccc(F)cc2)C1 (stereo not drawn) [N-Cyclopropyl-N-(1-{3-[bis-(4-fluorophenyl)amino]propyl}piperidin-3-yl)-3-trifluoromethylbenzenesulfonamide] | 2220 | –

Results, then the molecule that gave them:

IC50 [1] [nM] | IC50 [2] [nM] | Molecule
1100 | 6580 | CC(C)C[C@H](N)C(=O)N1CCCC(N(C2CC2)S(=O)(=O)c2cccc(C(F)(F)F)c2)C1 (stereo partly drawn) [(2S)N-[1-(2-Amino-4-methylpentanoyl)piperidin-3-yl]-N-cyclopropyl-3-trifluoromethylbenzenesulfonamide]
360 | – | CC(C)CCN[C@@H](CC(C)C)C(=O)N1CCCC(N(C2CC2)S(=O)(=O)c2cccc(C(F)(F)F)c2)C1 (stereo partly drawn) [(2S)N-Cyclopropyl-N-{1-[2-(3-methylbutyl)amino-4-methylpentanoyl]piperidin-3-yl}-3-trifluoromethylbenzenesulfonamide]
630 | 8770 | CC(C)NCCC(=O)N1CCCC(N(C2CC2)S(=O)(=O)c2cccc(C(F)(F)F)c2)C1 (stereo not drawn) [N-Cyclopropyl-N-[1-(3-isopropylaminopropionyl)piperidin-3-yl]-3-trifluoromethylbenzenesulfonamide]
280 | 500 | CC(C)C[C@H](N)CC(=O)N1CCCC(N(C2CC2)S(=O)(=O)c2cccc(C(F)(F)F)c2)C1 (stereo partly drawn) [(2S)N-[1-(3-Amino-5-methylhexanoyl)piperidin-3-yl]-N-cyclopropyl-3-trifluoromethylbenzenesulfonamide]
540 | 6580 | CN[C@@H](CC(C)C)C(=O)N1CCCC(N(C2CC2)S(=O)(=O)c2cccc(C(F)(F)F)c2)C1 (stereo partly drawn) [(2S)N-Cyclopropyl-N-[1-(4-methyl-2-methylaminopentanoyl)-piperidin-3-yl]-3-trifluoromethylbenzenesulfonamide]
690 | 5750 | CC(C)CNCC(=O)N1CCCC(N(C2CC2)S(=O)(=O)c2cccc(C(F)(F)F)c2)C1 (stereo not drawn) [N-Cyclopropyl-N-[1-(2-isobutylaminoacetyl)piperidin-3-yl]-3-trifluoromethylbenzenesulfonamide]
130 | 5070 | CCN[C@@H](CC(C)C)C(=O)N1CCCC(N(C2CC2)S(=O)(=O)c2cccc(C(F)(F)F)c2)C1 (stereo partly drawn) [(2S)N-Cyclopropyl-N-[1-(2-ethylamino-4-methylpentanoyl)piperidin-3-yl]-3-trifluoromethylbenzenesulfonamide]
210 | – | CC(C)C[C@H](NC(C)C)C(=O)N1CCCC(N(C2CC2)S(=O)(=O)c2cccc(C(F)(F)F)c2)C1 (stereo partly drawn) [(2S)N-Cyclopropyl-N-[1-(2-isopropylamino-4-methylpentanoyl)piperidin-3-yl]-3-trifluoromethylbenzenesulfonamide]
